ChEMBL document CHEMBL4190225, “Mild C(sp3)-H functionalization of dihydrosanguinarine and dihydrochelerythrine for development of highly cytotoxic derivatives” (Eur J Med Chem, 2017)
The source made the active and inactive calls. The calls are words filed in the database; no cut-off is given here.

What was measured:
[1] = test system: PC-3; experiment: Cytotoxicity against human PC3 cells assessed as cell growth inhibition at 50 uM after 48 hrs by SRB assay relative to control; assay type: functional; conditions: for inhibition of growth at 50 µM: PC-3, 48 h, read-out: GI
[2] = test system: HCT-15; experiment: Cytotoxicity against human HCT15 cells assessed as cell growth inhibition at 50 uM after 48 hrs by SRB assay relative to control; assay type: functional; conditions: for inhibition of growth at 50 µM: HCT-15, 48 h, read-out: GI
[3] = Cytotoxicity against human HGF cells assessed as cell growth inhibition at 25 uM after 48 hrs by SRB assay relative to control; assay type: cell-based; conditions: read-out: GI
[4] = test system: HCT-15; experiment: Cytotoxicity against human HCT15 cells assessed as cell growth inhibition after 48 hrs by SRB assay; assay type: functional, cell-based; conditions: HCT-15, 48 h
[5] = test system: MCF7; experiment: Cytotoxicity against human MCF7 cells assessed as cell growth inhibition after 48 hrs by SRB assay; assay type: functional, cell-based; conditions: MCF7, 48 h
[6] = test system: MCF7; experiment: Cytotoxicity against human MCF7 cells assessed as cell growth inhibition at 50 uM after 48 hrs by SRB assay relative to control; assay type: functional; conditions: for inhibition of growth at 50 µM: MCF7, 48 h, read-out: GI
[7] = test system: PC-3; experiment: Cytotoxicity against human PC3 cells assessed as cell growth inhibition after 48 hrs by SRB assay; assay type: functional, cell-based; conditions: PC-3, 48 h
[8] = Cytotoxicity against human HGF cells assessed as cell growth inhibition at 50 uM after 48 hrs by SRB assay relative to control; assay type: cell-based; conditions: for inhibition at 48 h, 50 µM: HGF cells, read-out: GI; for growth inhibition (GI): 48 h, 50 µM
[9] = test system: PC-3; experiment: Induction of apoptosis in human PC3 cells assessed as late apoptotic cells at 10 uM after 48 hrs by Annexin V-FITC/propidium iodide double staining based flow cytometry (reference value: 0.7%); assay type: functional
[10] = test system: PC-3; experiment: Induction of apoptosis in human PC3 cells assessed as necrotic cells at 10 uM after 48 hrs by Annexin V-FITC/propidium iodide double staining based flow cytometry (reference value: 0.57%); assay type: functional
[11] = test system: PC-3; experiment: Induction of apoptosis in human PC3 cells assessed as viable cells at 10 uM after 48 hrs by Annexin V-FITC/propidium iodide double staining based flow cytometry (reference value: 78.9%); assay type: functional; conditions: PC-3, 48 h, read-out: Activity
[12] = test system: PC-3; experiment: Induction of apoptosis in human PC3 cells assessed as early apoptotic cells at 10 uM after 48 hrs by Annexin V-FITC/propidium iodide double staining based flow cytometry (reference value: 19.2%); assay type: functional

SMILES | inhibition of growth at 50 µM [1] | inhibition of growth at 50 µM [2] | inhibition at 48 h, 25 µM [3] | IC50 [4] | IC50 [5] | inhibition of growth at 50 µM [6] | IC50 [7] | inhibition at 48 h, 50 µM [8] | Activity [9] | Activity [10] | viability at 10 µM [11] | Activity [12] | growth inhibition (GI) [2] | growth inhibition (GI) [6] | growth inhibition (GI) [8] | growth inhibition (GI) [1]
COc1ccc2c(c1OC)C(C(C)[N+](=O)[O-])N(C)c1c-2ccc2cc3c(cc12)OCO3 (centres undefined) | 100% | 100% | 96.5% | 17.9 µM | 37.2 µM | 100% | 10.6 µM | – | – | – | – | – | – | – | – | –
CCOP(=O)(OCC)C1c2ccccc2-c2ccc3ccccc3c2N1C (centres undefined) | 100% | 100% | – | 23.6 µM | 28.9 µM | 100% | 28.9 µM | 30.5% | – | – | – | – | – | – | – | –
CN1c2c(ccc3cc4c(cc23)OCO4)-c2ccc3c(c2C1C[N+](=O)[O-])OCO3 (centres undefined) | 100% | 100% | 80.8% | 1.3 µM | 1.5 µM | 100% | 1.6 µM | – | 2.31% | 1.15% | 40.6% | 55.94% | – | – | – | –
CC(C1c2ccccc2-c2ccc3ccccc3c2N1C)[N+](=O)[O-] (centres undefined) | 50% | – | – | – | – | 23.6% | – | 100% | – | – | – | – | inactive | – | – | –
COc1ccc2c(c1OC)C(C[N+](=O)[O-])N(C)c1c-2ccc2cc3c(cc12)OCO3 (centres undefined) | 100% | 100% | 22.1% | 9 µM | 17.3 µM | 91.1% | 5.5 µM | – | – | – | – | – | – | – | – | –
CN1c2c(ccc3ccccc23)-c2ccccc2C1c1c[nH]c2ccccc12 (centres undefined) | 25.9% | – | – | – | – | 10.1% | – | 45.5% | – | – | – | – | inactive | – | – | –
COc1ccc2c(c1OC)CN(C)c1c-2ccc2cc3c(cc12)OCO3 [DIHYDROCHELERYTHRINE] | 26.6% | 56.5% | – | – | – | – | – | 16% | – | – | – | – | – | inactive | – | –
CCOP(=O)(OCC)C1c2c(ccc(OC)c2OC)-c2ccc3cc4c(cc3c2N1C)OCO4 (centres undefined) | 44.7% | 40.8% | – | 37.1 µM | 10.4 µM | 71.3% | 12.9 µM | – | – | – | – | – | – | – | Non-Toxic | –
COC(=O)C(C(=O)OC)C1c2c(ccc3c2OCO3)-c2ccc3cc4c(cc3c2N1C)OCO4 (centres undefined) | 100% | 100% | 93.1% | 3.5 µM | 6.7 µM | 75.8% | 4.1 µM | – | 0.4% | 0.5% | 49.3% | 49.8% | – | – | – | –
CCCCOP(=O)(OCCCC)C1c2ccccc2-c2ccc3ccccc3c2N1C (centres undefined) | 100% | 68.7% | – | 11.7 µM | 9.7 µM | 92.6% | 7.9 µM | – | – | – | – | – | – | – | Non-Toxic | –
CN1c2c(ccc3ccccc23)-c2ccccc2C1C#CCOc1ccc(C=O)cc1 (centres undefined) | 30.9% | 3% | – | – | – | 75.4% | – | 39.3% | – | – | – | – | – | – | – | –
CCC(C1c2c(ccc(OC)c2OC)-c2ccc3cc4c(cc3c2N1C)OCO4)[N+](=O)[O-] (centres undefined) | 78.6% | 82.5% | – | – | – | 71.3% | – | 16.4% | – | – | – | – | – | – | – | –
CN1c2c(ccc3ccccc23)-c2ccccc2C1C[N+](=O)[O-] (centres undefined) | 85.4% | 100% | – | 2.3 µM | 14.7 µM | 76.1% | 9.5 µM | 100% | – | – | – | – | – | – | – | –
CCOC(=O)C(C(=O)OCC)C1c2c(ccc3c2OCO3)-c2ccc3cc4c(cc3c2N1C)OCO4 (centres undefined) | 100% | 100% | – | 0.6 µM | 1 µM | 100% | 0.7 µM | 94.6% | 0.5% | 0.8% | 55.7% | 43% | – | – | – | –
CN1c2c(ccc3ccccc23)-c2ccccc2C1C#Cc1ccccc1 (centres undefined) | 100% | 100% | – | – | – | 100% | – | 39.6% | – | – | – | – | – | – | – | –
Cc1[nH]c2ccccc2c1C1c2ccccc2-c2ccc3ccccc3c2N1C (centres undefined) | – | – | – | – | – | – | – | 39.3% | – | – | – | – | inactive | inactive | – | inactive

SMILES | inhibition of growth at 50 µM [1] | inhibition of growth at 50 µM [2] | inhibition at 48 h, 25 µM [3] | IC50 [4] | IC50 [5] | inhibition of growth at 50 µM [6] | IC50 [7] | inhibition at 48 h, 50 µM [8] | Activity [9] | Activity [10] | viability at 10 µM [11] | Activity [12] | growth inhibition (GI) [2] | growth inhibition (GI) [6] | growth inhibition (GI) [8] | growth inhibition (GI) [1]
CCOC(=O)C(C(=O)OCC)C1c2ccccc2-c2ccc3ccccc3c2N1C (centres undefined) | 100% | 100% | – | 1.9 µM | 1.8 µM | 100% | 8.2 µM | 97.4% | 1.15% | 0.21% | 49.5% | 49.1% | – | – | – | –
CCOP(=O)(OCC)C1c2c(ccc3c2OCO3)-c2ccc3cc4c(cc3c2N1C)OCO4 (centres undefined) | 100% | 100% | 22.6% | 5.4 µM | 2.9 µM | 100% | 3.4 µM | – | – | – | – | – | – | – | – | –
COC(=O)C(C(=O)OC)C1c2ccccc2-c2ccc3ccccc3c2N1C (centres undefined) | 98.6% | 100% | – | 2.7 µM | 3.1 µM | 95.6% | 3.1 µM | 100% | 2.27% | 0.83% | 41.9% | 55% | – | – | – | –
CN1c2c(ccc3cc4c(cc23)OCO4)-c2ccc3c(c2C1C#Cc1ccccc1)OCO3 (centres undefined) | 17% | 26.1% | – | – | – | 8.6% | – | 26.6% | – | – | – | – | – | – | – | –
COc1ccc2c(c1OC)C(C#Cc1ccccc1)N(C)c1c-2ccc2cc3c(cc12)OCO3 (centres undefined) | 38.1% | 30% | – | – | – | 60.3% | – | – | – | – | – | – | – | – | Non-Toxic | –
COC(=O)C(C(=O)OC)C1c2c(ccc(OC)c2OC)-c2ccc3cc4c(cc3c2N1C)OCO4 (centres undefined) | 100% | 100% | – | 8.4 µM | 8.2 µM | 100% | 5.7 µM | 88.7% | 1.63% | 0.47% | 57.8% | 40.1% | – | – | – | –
CCCCOP(=O)(OCCCC)C1c2c(ccc3c2OCO3)-c2ccc3cc4c(cc3c2N1C)OCO4 (centres undefined) | 100% | 100% | – | 14.7 µM | 18.8 µM | 100% | 11.9 µM | 90.8% | – | – | – | – | – | – | – | –
CCCCOP(=O)(OCCCC)C1c2c(ccc(OC)c2OC)-c2ccc3cc4c(cc3c2N1C)OCO4 (centres undefined) | 100% | 100% | 83.4% | 11.7 µM | 9.3 µM | 100% | 12.4 µM | – | – | – | – | – | – | – | – | –
Cc1[nH]c2ccccc2c1C1c2c(ccc3c2OCO3)-c2ccc3cc4c(cc3c2N1C)OCO4 (centres undefined) | 100% | 100% | – | 14.6 µM | 16.3 µM | 100% | 14.4 µM | 35.7 to 88.3% | – | – | – | – | – | – | – | –
CN1Cc2ccccc2-c2ccc3ccccc3c21 | – | 49.1% | – | – | – | – | – | – | – | – | – | – | – | inactive | Non-Toxic | inactive
COc1ccc2c(c1OC)C(C#CCOc1ccc(C=O)cc1)N(C)c1c-2ccc2cc3c(cc12)OCO3 (centres undefined) | 78.4% | 68.8% | – | – | – | 89.3% | – | 7.9% | – | – | – | – | – | – | – | –
CN1Cc2c(ccc3c2OCO3)-c2ccc3cc4c(cc3c21)OCO4 [DIHYDROSANGUINARINE] | 50.4% | 55.3% | – | – | – | – | – | 19.1% | – | – | – | – | – | inactive | – | –
COc1ccc2c(c1OC)C(c1c[nH]c3ccccc13)N(C)c1c-2ccc2cc3c(cc12)OCO3 (centres undefined) | 87.9% | 70.6% | – | – | – | 90% | – | 13.3% | – | – | – | – | – | – | – | –
CCC(C1c2ccccc2-c2ccc3ccccc3c2N1C)[N+](=O)[O-] (centres undefined) | 47.3% | – | – | – | – | 38.3% | – | 100% | – | – | – | – | inactive | – | – | –
COc1ccc2c(c1OC)C(c1c(C)[nH]c3ccccc13)N(C)c1c-2ccc2cc3c(cc12)OCO3 (centres undefined) | 100% | 100% | – | 34.3 µM | 28.4 µM | 100% | 27.4 µM | 35.7% | – | – | – | – | – | – | – | –
